The text below walks through data of PubChem BioAssay (NCI).

Some test systems named below: OVCAR-8 ovarian; M14 melanoma; SF-268 CNS; SF-295 CNS; SK-OV-3 ovarian; HCT-15 colon; IGROV1 ovarian; OVCAR-4 ovarian; CAKI-1 renal; SF-539 CNS.
Common to all, as to assay: NCI-60 cell line screen, 48 h

Structures are written as SMILES.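 A five-concentration, 48-hour dose response in 96-well plates underlies each endpoint, interpolated linearly between surrounding concentrations. At the GI50, growth is halved. Definition used: TGI = concentration required for complete inhibition of growth.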

Regarding `CN(C)c1ccc(N=C(C#N)c2nc(N)nc(N3CCN(c4ccccc4)CC3)n2)cc1`, the GI50 with OVCAR-8 ovarian is 18 µM; with M14 melanoma, over 50 µM; with SF-268 CNS, 11.7 µM; in the assay on SF-295 CNS it was 14.7 µM; in the assay with SK-OV-3 ovarian, 16.6 µM; with HCT-15 colon it was over 28.5 µM. Further, the GI50 was 14.8 µM with IGROV1 ovarian, 18.9 µM with OVCAR-4 ovarian, 20.4 µM in the assay with CAKI-1 renal and 18.4 µM in the assay on SF-539 CNS. Further, the TGI is over 37.2 µM with OVCAR-8 ovarian; over 50 µM with M14 melanoma; 34.9 µM in the assay with SF-268 CNS; over 43.7 µM in the assay with SF-295 CNS; over 35.4 µM with SK-OV-3 ovarian; over 50 µM in the assay with HCT-15 colon. Also, the TGI was over 50 µM with IGROV1 ovarian, over 34.1 µM in the assay with OVCAR-4 ovarian, over 46.7 µM in the assay on CAKI-1 renal and over 50 µM in the assay on SF-539 CNS.
With `O=c1cccccc1NCCNc1cccccc1=O`, the TGI with OVCAR-8 ovarian, in the assay on M14 melanoma, with SF-268 CNS, in the assay with SF-295 CNS, in the assay on SK-OV-3 ovarian and in the assay with HCT-15 colon was over 100 µM in each case. The TGI in the assay with IGROV1 ovarian, with OVCAR-4 ovarian, with CAKI-1 renal and in the assay with SF-539 CNS was over 100 µM throughout.
Regarding `S=c1[nH]nc(SCc2ccccc2Cl)c2[nH]cnc12`, the TGI in the assay with OVCAR-8 ovarian, in the assay with M14 melanoma, in the assay with SF-268 CNS, in the assay on SF-295 CNS, with SK-OV-3 ovarian and with HCT-15 colon was over 100 µM each time. The TGI with IGROV1 ovarian, in the assay on OVCAR-4 ovarian, in the assay on CAKI-1 renal and in the assay with SF-539 CNS was over 100 µM each time.
With `Cc1ccc(SCC(O)=C2C(=O)CCCC2=O)cc1`, the TGI in the assay with OVCAR-8 ovarian, in the assay on M14 melanoma, with SF-268 CNS, in the assay with SF-295 CNS, with SK-OV-3 ovarian and in the assay on HCT-15 colon was over 100 µM throughout. The TGI with IGROV1 ovarian, with OVCAR-4 ovarian, in the assay on CAKI-1 renal and with SF-539 CNS was over 100 µM throughout.
Turning to `COc1cc(CNC(=O)CCSc2nc3ccccc3c(=O)n2Cc2cc(OC)c(OC)c(OC)c2)cc(OC)c1OC`, the GI50 with OVCAR-8 ovarian is 10 µM; with M14 melanoma, 2.23 µM; in the assay on SF-268 CNS, 7.13 µM; in the assay with SF-295 CNS, 4.36 µM; in the assay with SK-OV-3 ovarian, 5.34 µM; with HCT-15 colon, 2.47 µM. The GI50 in the assay with IGROV1 ovarian is 13.2 µM; in the assay with OVCAR-4 ovarian, 10.8 µM; in the assay on CAKI-1 renal, 5.46 µM; in the assay with SF-539 CNS it was 2.86 µM. Besides, the TGI in the assay with OVCAR-8 ovarian is 50.7 µM; in the assay on M14 melanoma, 5.8 µM; with SF-268 CNS, over 100 µM; in the assay on SF-295 CNS, over 100 µM; in the assay on SK-OV-3 ovarian, 18.6 µM; in the assay on HCT-15 colon, over 100 µM. For the same molecule, the TGI with IGROV1 ovarian is over 100 µM; with OVCAR-4 ovarian, 77.1 µM; with CAKI-1 renal, over 100 µM; with SF-539 CNS, 10.7 µM.
As for `Cc1ccc(C)c2c1CCc1cc3ccccc3nc1-2`, the TGI with OVCAR-8 ovarian, with M14 melanoma, in the assay on SF-268 CNS, in the assay with SF-295 CNS, in the assay on SK-OV-3 ovarian and in the assay with HCT-15 colon was over 100 µM each time. The TGI in the assay on IGROV1 ovarian, with OVCAR-4 ovarian, with CAKI-1 renal and in the assay on SF-539 CNS was over 100 µM throughout.
As for `COc1cc(/C=C/c2cc(/C=C/c3ccc(O)c(OC)c3)[nH]c(=O)n2)ccc1O`, the GI50 with OVCAR-8 ovarian is 3.01 µM; in the assay on M14 melanoma it was 3.12 µM; with SF-268 CNS, 4.58 µM; in the assay on SF-295 CNS, 2.75 µM; in the assay with SK-OV-3 ovarian, 2.33 µM; in the assay on HCT-15 colon, 5.43 µM. The GI50 in the assay on IGROV1 ovarian was 4.41 µM; in the assay on OVCAR-4 ovarian, 2.46 µM; in the assay on CAKI-1 renal, 3.38 µM; with SF-539 CNS, 3.87 µM. The TGI was 12.7 µM with OVCAR-8 ovarian; 15.4 µM in the assay with M14 melanoma; over 100 µM in the assay with SF-268 CNS; 9.87 µM in the assay on SF-295 CNS; 4.89 µM with SK-OV-3 ovarian; over 100 µM in the assay with HCT-15 colon. For the same molecule, the TGI in the assay on IGROV1 ovarian is over 100 µM; in the assay with OVCAR-4 ovarian, 16.8 µM; with CAKI-1 renal, over 100 µM; in the assay with SF-539 CNS, over 100 µM.
`N#C/C(=C\c1cccnc1)c1nc2ccccc2o1`: the GI50 in the assay on OVCAR-8 ovarian, in the assay on M14 melanoma, with SF-268 CNS, in the assay on SF-295 CNS, in the assay with SK-OV-3 ovarian and in the assay with HCT-15 colon was over 100 µM in each case. Moreover, the GI50 in the assay with IGROV1 ovarian, with OVCAR-4 ovarian, in the assay with CAKI-1 renal and in the assay on SF-539 CNS was over 100 µM throughout. The TGI in the assay on OVCAR-8 ovarian, in the assay with M14 melanoma, in the assay on SF-268 CNS, with SF-295 CNS, with SK-OV-3 ovarian and in the assay on HCT-15 colon was over 100 µM throughout. The TGI in the assay on IGROV1 ovarian, in the assay on OVCAR-4 ovarian, in the assay with CAKI-1 renal and with SF-539 CNS was over 100 µM each time.
Consider `CN(C)CCNc1c2c(c(NCCN(C)C)c3c(CO)c[nH]c13)C(=O)c1ccccc1C2=O`, for which the GI50 is 8.53 µM in the assay with OVCAR-8 ovarian; 2.04 µM in the assay on M14 melanoma; 4.27 µM in the assay with SF-268 CNS; 3.39 µM in the assay with SF-295 CNS; 4.64 µM in the assay on SK-OV-3 ovarian; 1.96 µM in the assay on HCT-15 colon. Further, the GI50 was 2.49 µM with IGROV1 ovarian, 2.58 µM in the assay on OVCAR-4 ovarian, 4.64 µM in the assay with CAKI-1 renal and 1.96 µM with SF-539 CNS. In addition, the TGI in the assay with OVCAR-8 ovarian was over 39.4 µM; with M14 melanoma, 4.57 µM; with SF-268 CNS, 22.1 µM; in the assay on SF-295 CNS, 17.8 µM; in the assay with SK-OV-3 ovarian, 20.8 µM; in the assay on HCT-15 colon, 10.6 µM. Also, the TGI in the assay on IGROV1 ovarian is over 40.7 µM; in the assay with OVCAR-4 ovarian, 11.5 µM; in the assay with CAKI-1 renal it was 19.2 µM; with SF-539 CNS, 4.72 µM.
Regarding `CCN(CC)CCOc1nc2cc(OC)c(OC)cc2c2c1-c1ccc(OC)cc1C2=O`, the GI50 in the assay with OVCAR-8 ovarian is 8.62 µM; in the assay with M14 melanoma, 11.7 µM; in the assay on SF-268 CNS, 4.93 µM; in the assay with SF-295 CNS, 0.117 µM; in the assay with SK-OV-3 ovarian, 13.2 µM; with HCT-15 colon it was 1.79 µM. In addition, the GI50 is 5.65 µM in the assay on IGROV1 ovarian, 13.9 µM with OVCAR-4 ovarian, 10.3 µM in the assay on CAKI-1 renal and 8.62 µM with SF-539 CNS. Also, the TGI was found to be 21.4 µM with OVCAR-8 ovarian; 24 µM with M14 melanoma; 21.9 µM in the assay on SF-268 CNS; 0.597 µM in the assay with SF-295 CNS; 26 µM in the assay with SK-OV-3 ovarian; 3.78 µM in the assay on HCT-15 colon. In addition, the TGI was found to be 20.6 µM in the assay on IGROV1 ovarian, 33.5 µM in the assay on OVCAR-4 ovarian, 22.5 µM in the assay with CAKI-1 renal and 23.6 µM in the assay on SF-539 CNS.
For the molecule `CC(C)N(Cc1ccccc1)S(=O)(=O)c1n[nH]c(C(C)(C)C)n1`, the TGI in the assay with OVCAR-8 ovarian, in the assay with M14 melanoma, in the assay on SF-268 CNS, in the assay on SF-295 CNS, in the assay on SK-OV-3 ovarian and in the assay on HCT-15 colon was over 100 µM in each case. Moreover, the TGI in the assay with IGROV1 ovarian, in the assay on OVCAR-4 ovarian, in the assay with CAKI-1 renal and in the assay on SF-539 CNS was over 100 µM throughout.
`O=C(Nc1ccccc1C(=O)O)C(=O)C(C(=O)c1ccccc1-c1ccccc1)C1OC(=O)c2ccccc21` (stereo not given): the TGI was 37.9 µM with OVCAR-8 ovarian; 33.4 µM in the assay with M14 melanoma; 39.5 µM with SF-268 CNS; 53.5 µM in the assay on SF-295 CNS; 94 µM with SK-OV-3 ovarian; 30.6 µM with HCT-15 colon. Besides, the TGI is 56.3 µM in the assay with IGROV1 ovarian, over 100 µM in the assay on OVCAR-4 ovarian, over 100 µM with CAKI-1 renal and 35.8 µM in the assay on SF-539 CNS.
Regarding `O=C1OC(c2ccccc2)=N/C1=C/N1CCCC1C(=O)O` (stereo not given), the TGI in the assay with OVCAR-8 ovarian, in the assay with M14 melanoma, in the assay with SF-268 CNS, in the assay on SF-295 CNS, in the assay with SK-OV-3 ovarian and in the assay on HCT-15 colon was over 100 µM throughout. In addition, the TGI in the assay with IGROV1 ovarian, in the assay with OVCAR-4 ovarian, in the assay with CAKI-1 renal and in the assay on SF-539 CNS was over 100 µM throughout.
Turning to `CN/N=C(\C(=O)Nc1ccc([N+](=O)[O-])cc1[N+](=O)[O-])C1NC(=O)NC1=O` (stereo not given), the TGI in the assay with OVCAR-8 ovarian, in the assay with M14 melanoma, with SF-268 CNS, in the assay with SF-295 CNS, in the assay with SK-OV-3 ovarian and with HCT-15 colon was over 100 µM each time. For the same molecule, the TGI with IGROV1 ovarian, in the assay on OVCAR-4 ovarian, with CAKI-1 renal and in the assay with SF-539 CNS was over 100 µM in each case.
For `O=C(Nc1ccc(-c2ccnc(Nc3ccc(N4CCOCC4)cc3)n2)cc1)C1CCCN1` (stereo not given), the GI50 with OVCAR-8 ovarian was 5.09 µM; with M14 melanoma it was 7.23 µM; in the assay on SF-268 CNS, 4.9 µM; in the assay with SF-295 CNS, 4.18 µM; in the assay on SK-OV-3 ovarian, 11.8 µM; in the assay on HCT-15 colon it was 0.639 µM. The GI50 is 5.16 µM with IGROV1 ovarian, 12.2 µM in the assay with OVCAR-4 ovarian, 3.29 µM with CAKI-1 renal and 2.33 µM in the assay on SF-539 CNS. Further, the TGI in the assay with OVCAR-8 ovarian amounted to 28.3 µM; in the assay on M14 melanoma, 22.8 µM; with SF-268 CNS, 44.8 µM; in the assay on SF-295 CNS, 20.4 µM; in the assay on SK-OV-3 ovarian it was 32.8 µM; in the assay on HCT-15 colon it was 18.9 µM. In addition, the TGI with IGROV1 ovarian came out at 25.8 µM; in the assay on OVCAR-4 ovarian it was 43.1 µM; in the assay with CAKI-1 renal it was 17.7 µM; in the assay on SF-539 CNS, 14.2 µM.
